Source: patent publication US20250195536A1, “BICYCLOOCTANE KRAS INHIBITORS” (Incyte Corporation, priority 2023, published 2025)

Tests used:
KRAS G12D = KRAS G12D (Homo sapiens, UniProt P01116, G12D); experiment: GDP-GTP exchange assay (KRAS G12D); format: biochemical; settings: bodipy-GDP/GppNHp exchange with SOS1; 4 h pre-incubation, 2 h reaction;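 further: one dagger IC50 up to 100 nM and two daggers above 100 nM up to 1 μM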
How it was run: (§1)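 IC50 came from a four-parameter fit of fluorescence loss (485/520 nm) as SOS1 (150 nM) swapped bodipy-GDP for GppNHp (500 μM) on 2.5 nM KRAS, final concentrations. Compounds were pre-incubated 4 h at r.t. (pH 7.5 Hepes, 10 mM MgCl2); exchange ran 2 h (G12D) or 3 h (G12V).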

KRAS G12V = KRAS G12V (Homo sapiens, UniProt P01116, G12V); experiment: GDP-GTP exchange assay (KRAS G12V); format: biochemical; settings: bodipy-GDP/GppNHp exchange with SOS1; 3 h incubation after GppNHp-SOS1;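 further: one dagger IC50 up to 100 nM and two daggers above 100 nM up to 1 μM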
Chain of KRAS G12V (P01116 1-188 isoform P01116-2 G12V): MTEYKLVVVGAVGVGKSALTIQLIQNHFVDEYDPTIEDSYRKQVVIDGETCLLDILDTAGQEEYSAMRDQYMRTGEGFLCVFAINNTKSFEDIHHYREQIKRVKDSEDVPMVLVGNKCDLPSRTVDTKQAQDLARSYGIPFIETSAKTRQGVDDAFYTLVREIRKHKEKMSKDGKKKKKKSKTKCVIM
How it was run: as §1

[1] = Caco2 assay (permeability, Papp A-B); format: in vitro ADME; settings: human, Caco-2, absorptive direction (A-B), 50 μM test compound, 4% BSA in receiver
How it was run: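 Absorptive (A-B) Papp: 50 μM test compound in HBSS added to apical side of 22-25-day Caco-2 monolayers (TEER 300 Ω·cm^2), receiver buffer containing 4% BSA. After 120 min at 37 °C, 5% CO2, both sides analysed by LCMS; Papp calculated from flux rate normalized to area and donor amount.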

Chain of KRAS G12D (P01116 1-188 isoform P01116-2 G12D): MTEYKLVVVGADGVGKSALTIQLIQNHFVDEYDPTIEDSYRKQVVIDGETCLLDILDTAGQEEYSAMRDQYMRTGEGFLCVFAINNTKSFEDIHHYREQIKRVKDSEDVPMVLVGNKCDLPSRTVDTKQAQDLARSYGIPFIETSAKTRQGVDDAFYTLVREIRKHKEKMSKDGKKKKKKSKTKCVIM

Structure (SMILES) | G12D_exchange (KRAS_G12D exchange assay IC50) (KRAS G12D) | G12V_exchange (KRAS_G12V exchange assay IC50) (KRAS G12V) | Papp A→B at 120 min, 50 μM [1] [×10⁻⁶ cm/s]
Cc1ccc(F)c(N2C[C@@H]3C[C@H](C2)N(C(=O)C2CC2)[C@H]3c2cc3c(C)nc4c(F)c(-c5cccc(Cl)c5Cl)c(CCC#N)cc4c3n2[C@H]2[C@H]3CN[C@@H]2C3)n1 (atropisomer, axis not shown; (Ra)) [Example 52, 3-((Ra)-1-((1R,4R,5S)-2-azabicyclo[2.1.1]hexan-5-yl)-2-((1S,5R,7R)-6-(cyclopropanecarbonyl)-3-(3-fluoro-6-methylpyridin-2-yl)-3,6-diazabicyclo[3.2.1]octan-7-yl)-7-(2,3-dichlorophenyl)-6-fluoro-4-methyl-1H-pyrrolo[3,2-c]quinolin-8-yl)propanenitrile] | †† | † | 0.5 to 1
Cc1nc2c(F)c(-c3cccc(Cl)c3Cl)c(CCC#N)cc2c2c1cc([C@H]1[C@H]3C[C@H](CN(c4ccn(C(F)F)c(=O)c4)C3)N1C(=O)C1CC1)n2[C@H]1[C@H]2CN[C@@H]1C2 (atropisomer, axis not shown; (Ra)) [Example 56, 3-((Ra)-1-((1R,4R,5S)-2-azabicyclo[2.1.1]hexan-5-yl)-2-((1S,5R,7R)-6-(cyclopropanecarbonyl)-3-(1-(difluoromethyl)-2-oxo-1,2-dihydropyridin-4-yl)-3,6-diazabicyclo[3.2.1]octan-7-yl)-7-(2,3-dichlorophenyl)-6-fluoro-4-methyl-1H-pyrrolo[3,2-c]quinolin-8-yl)propanenitrile] | † | † | ≤ 0.5
Cc1nc2c(F)c(-c3cccc(Cl)c3Cl)c(CCC#N)cc2c2c1cc([C@H]1[C@H]3C[C@H](CN(c4ccn(CC(C)C)c(=O)c4)C3)N1C(=O)C1CC1)n2[C@H]1[C@H]2CN[C@@H]1C2 (atropisomer, axis not shown; (Ra)) [Example 58, 3-((Ra)-1-((1R,4R,5S)-2-azabicyclo[2.1.1]hexan-5-yl)-2-((1S,5R,7R)-6-(cyclopropanecarbonyl)-3-(1-isobutyl-2-oxo-1,2-dihydropyridin-4-yl)-3,6-diazabicyclo[3.2.1]octan-7-yl)-7-(2,3-dichlorophenyl)-6-fluoro-4-methyl-1H-pyrrolo[3,2-c]quinolin-8-yl)propanenitrile] | † | † | ≤ 0.5
Cc1nc2c(F)c(-c3cccc(Cl)c3Cl)c(CCC#N)cc2c2c1cc([C@H]1[C@H]3C[C@H](CN(c4ccnc(C(F)F)c4)C3)N1C(=O)C1CC1)n2[C@H]1[C@H]2CN[C@@H]1C2 (atropisomer, axis not shown; (Ra)) [Example 60, 3-((Ra)-1-((1R,4R,5S)-2-azabicyclo[2.1.1]hexan-5-yl)-2-((1S,5R,7R)-6-(cyclopropanecarbonyl)-3-(2-(difluoromethyl)pyridin-4-yl)-3,6-diazabicyclo[3.2.1]octan-7-yl)-7-(2,3-dichlorophenyl)-6-fluoro-4-methyl-1H-pyrrolo[3,2-c]quinolin-8-yl)propanenitrile] | † | † | ≤ 0.5
Cc1nc2c(F)c(-c3cccc(Cl)c3Cl)c(CCC#N)cc2c2c1cc([C@H]1[C@H]3C[C@H](CN(c4ccn5ccnc5c4)C3)N1C(=O)C1CC1)n2[C@H]1[C@H]2CN[C@@H]1C2 (atropisomer, axis not shown; (Ra)) [Example 61, 3-((Ra)-1-((1R,4R,5S)-2-azabicyclo[2.1.1]hexan-5-yl)-2-((1S,5R,7R)-6-(cyclopropanecarbonyl)-3-(imidazo[1,2-a]pyridin-7-yl)-3,6-diazabicyclo[3.2.1]octan-7-yl)-7-(2,3-dichlorophenyl)-6-fluoro-4-methyl-1H-pyrrolo[3,2-c]quinolin-8-yl)propanenitrile] | † | † | ≤ 0.5
Cc1nc2c(F)c(-c3cccc(Cl)c3Cl)c(CCC#N)cc2c2c1cc([C@H]1[C@H]3C[C@H](CN(c4ccnc(C(C)(C)O)c4)C3)N1C(=O)C1CC1)n2[C@H]1[C@H]2CN[C@@H]1C2 (atropisomer, axis not shown; (Ra)) [Example 62, 3-((Ra)-1-((1R,4R,5S)-2-azabicyclo[2.1.1]hexan-5-yl)-2-((1S,5R,7R)-6-(cyclopropanecarbonyl)-3-(2-(2-hydroxypropan-2-yl)pyridin-4-yl)-3,6-diazabicyclo[3.2.1]octan-7-yl)-7-(2,3-dichlorophenyl)-6-fluoro-4-methyl-1H-pyrrolo[3,2-c]quinolin-8-yl)propanenitrile] | † | † | ≤ 0.5

Results, then the molecule that gave them:

G12D_exchange (KRAS_G12D exchange assay IC50) (KRAS G12D) | G12V_exchange (KRAS_G12V exchange assay IC50) (KRAS G12V) | Papp A→B at 120 min, 50 μM [1] [×10⁻⁶ cm/s] | Structure (SMILES)
†† | † | ≤ 0.5 | Cc1nc2c(F)c(-c3cccc(Cl)c3Cl)c(CCC#N)cc2c2c1cc([C@H]1[C@H]3C[C@H](CN(c4nccc(C(F)(F)F)c4F)C3)N1C(=O)C1CC1)n2[C@H]1[C@H]2CN[C@@H]1C2 (atropisomer, axis not shown; (Ra)) [Example 50, 3-((Ra)-1-((1R,4R,5S)-2-azabicyclo[2.1.1]hexan-5-yl)-2-((1S,5R,7R)-6-(cyclopropanecarbonyl)-3-(3-fluoro-4-(trifluoromethyl)pyridin-2-yl)-3,6-diazabicyclo[3.2.1]octan-7-yl)-7-(2,3-dichlorophenyl)-6-fluoro-4-methyl-1H-pyrrolo[3,2-c]quinolin-8-yl)propanenitrile]
† | † | 0.5 to 1 | Cc1ccnc(N2C[C@@H]3C[C@H](C2)N(C(=O)C2CC2)[C@H]3c2cc3c(C)nc4c(F)c(-c5cccc(Cl)c5Cl)c(CCC#N)cc4c3n2[C@H]2[C@H]3CN[C@@H]2C3)c1F (atropisomer, axis not shown; (Ra)) [Example 51, 3-((Ra)-1-((1R,4R,5S)-2-azabicyclo[2.1.1]hexan-5-yl)-2-((1S,5R,7R)-6-(cyclopropanecarbonyl)-3-(3-fluoro-4-methylpyridin-2-yl)-3,6-diazabicyclo[3.2.1]octan-7-yl)-7-(2,3-dichlorophenyl)-6-fluoro-4-methyl-1H-pyrrolo[3,2-c]quinolin-8-yl)propanenitrile]
† | † | 0.5 to 1 | Cc1cnc(N2C[C@@H]3C[C@H](C2)N(C(=O)C2CC2)[C@H]3c2cc3c(C)nc4c(F)c(-c5cccc(Cl)c5Cl)c(CCC#N)cc4c3n2[C@H]2[C@H]3CN[C@@H]2C3)c(F)c1 (atropisomer, axis not shown; (Ra)) [Example 53, 3-((Ra)-1-((1R,4R,5S)-2-azabicyclo[2.1.1]hexan-5-yl)-2-((1S,5R,7R)-6-(cyclopropanecarbonyl)-3-(3-fluoro-5-methylpyridin-2-yl)-3,6-diazabicyclo[3.2.1]octan-7-yl)-7-(2,3-dichlorophenyl)-6-fluoro-4-methyl-1H-pyrrolo[3,2-c]quinolin-8-yl)propanenitrile]
† | † | ≤ 0.5 | Cc1nc2c(F)c(-c3cccc(Cl)c3Cl)c(CCC#N)cc2c2c1cc([C@H]1[C@H]3C[C@H](CN(c4nccc(C(F)F)c4F)C3)N1C(=O)C1CC1)n2[C@H]1[C@H]2CN[C@@H]1C2 (atropisomer, axis not shown; (Ra)) [Example 54, 3-((Ra)-1-((1R,4R,5S)-2-azabicyclo[2.1.1]hexan-5-yl)-2-((1S,5R,7R)-6-(cyclopropanecarbonyl)-3-(4-(difluoromethyl)-3-fluoropyridin-2-yl)-3,6-diazabicyclo[3.2.1]octan-7-yl)-7-(2,3-dichlorophenyl)-6-fluoro-4-methyl-1H-pyrrolo[3,2-c]quinolin-8-yl)propanenitrile]
†† | † | 0.5 to 1 | COc1ccnc(N2C[C@@H]3C[C@H](C2)N(C(=O)C2CC2)[C@H]3c2cc3c(C)nc4c(F)c(-c5cccc(Cl)c5Cl)c(CCC#N)cc4c3n2[C@H]2[C@H]3CN[C@@H]2C3)c1F (atropisomer, axis not shown; (Ra)) [Example 55, 3-((Ra)-1-((1R,4R,5S)-2-azabicyclo[2.1.1]hexan-5-yl)-2-((1S,5R,7R)-6-(cyclopropanecarbonyl)-3-(3-fluoro-4-methoxypyridin-2-yl)-3,6-diazabicyclo[3.2.1]octan-7-yl)-7-(2,3-dichlorophenyl)-6-fluoro-4-methyl-1H-pyrrolo[3,2-c]quinolin-8-yl)propanenitrile]
† | † | ≤ 0.5 | COc1cc(N2C[C@@H]3C[C@H](C2)N(C(=O)C2CC2)[C@H]3c2cc3c(C)nc4c(F)c(-c5cccc(Cl)c5Cl)c(CCC#N)cc4c3n2[C@H]2[C@H]3CN[C@@H]2C3)ccn1 (atropisomer, axis not shown; (Ra)) [Example 59, 3-((Ra)-1-((1R,4R,5S)-2-azabicyclo[2.1.1]hexan-5-yl)-2-((1S,5R,7R)-6-(cyclopropanecarbonyl)-3-(2-methoxypyridin-4-yl)-3,6-diazabicyclo[3.2.1]octan-7-yl)-7-(2,3-dichlorophenyl)-6-fluoro-4-methyl-1H-pyrrolo[3,2-c]quinolin-8-yl)propanenitrile]
